The results in this text go back to patent EP0453247A2, “Anti-viral compounds” (THE WELLCOME FOUNDATION LIMITED, priority 1990, dated 1991).

The test system of data set [1] is VZV. The experiment in a line: VZV plaque reduction assay. In kind it is cell-based. Conditions: Human alphaherpesvirus 3; plaque reduction in monolayers of MRC5 or Detroit 532 cells; read-out: VZV 1C50. Here is the method:
Antiviral testing against VZV was determined by measuring the ability of the compound to reverse the cytophathic effect of VZV infection.
VZV is assayed in monolayers of either MRC5 cells (human embryonic lung) or Detroit 532 cells (human foreskin fibroblasts) in multiwell trays. Activity of compounds is determined in the plaque reduction assay, in which a cell monolayer is infected with a suspension of VZV. Plaque numbers of each concentration are expressed as percentage of the control and a dose-response curve is drawn. From this curve the 50% inhibitory concentration (IC₅₀) is estimated.
In general terms: Plaque reduction counts the foci of infection that form in a cell layer.

Data set [2] is described as follows: Cell growth inhibition assay (MTT uptake). In kind it is cell-based. The note with it: monkey, Vero cells, 50% inhibition of cell viability at 96 hours, read-out: Toxicity CCID50(Vero). Here is the method:
Cell toxicity is assessed in a cell growth inhibition assay. Subconfluent cultures of Vero cells grown on 96-well microtiter dishes are exposed to different dilutions of drug, and cell viability determined daily on replicate cultures using uptake of a tetrazolium dye (MTT). The concentration required for a 50% inhibition of cell vaibility at 96 hours is termed CCID₅₀.

For `CC#Cc1cn([C@@H]2O[C@H](CO)[C@@H](O)[C@H]2F)c(=O)[nH]c1=O` [2'-Deoxy-2'-fluoro-5-prop-1-ynyluridine, 2′-Deoxy-2′-fluoro-5-prop-1-ynyluridine], the IC50 in data set [1] was 2.6 µM. In addition, the CC50 at 96 h in data set [2] was more than 500 µM.
In the same order, the values of `C#Cc1cn([C@@H]2O[C@H](CO)[C@@H](O)[C@H]2F)c(=O)nc1N` [2'-Deoxy-5-ethynyl-2'-fluorocytidine, 2′-Deoxy-5-ethynyl-2′fluorocytidine] are 5.3 µM and more than 500 µM.
As for `C#Cc1cn([C@@H]2O[C@H](CO)[C@@H](O)[C@H]2F)c(=O)[nH]c1=O` [2'-Deoxy-5-ethynyl-2'-fluorouridine, 2′-Deoxy-5-ethynyl-2′-fluoro uridine], in data set [1], the IC50 came out at 2.16 µM. The CC50 at 96 h in data set [2] was found to be 156 µM.
For `CC#Cc1cn([C@@H]2O[C@H](CO)[C@@H](O)[C@H]2F)c(=O)nc1N` [2'-Deoxy-2'-fluoro-5-prop-1-ynylcytidine, 2′-Deoxy-2′-fluoro-5-prop-1-ynylcytidine], in that order: 2.3 µM and more than 500 µM.
